Like-named read-outs stand apart in the source and are kept apart here.
Columns and labels:
[1] = First-in-human single-ascending-dose study: plasma pharmacokinetics; type: in vivo; conditions: for half-life / Tmax / AUC(0-inf) / Cmax / Vd/F: human, plasma; for Vd/F: read-out: Vz/F
Description: (i) First-in-human study. The study was conducted in five fasted cohorts (5, 20, 40, 80, and 120 mg) and one fed 40-mg cohort. The initial dose of 5 mg was chosen in agreement with guidelines on dose selection for first-in-human clinical studies ([15], [16]) and was based on the no-observed-adverse-event level for the most sensitive species observed in preclinical toxicology studies. Doses administered to subsequent cohorts were determined a priori after consideration of interim human pharmacokinetic and safety data.
All subjects in the fasted cohorts were dosed on day 1 after a fasting period of ≥8 h. Water was prohibited from 2 h predose and then allowed ad libitum from 2 h postdose, and standardized meals were provided from 4 h postdose. In the first two cohorts (5 and 20 mg), a sentinel subcohort (n = 2) was dosed on day 1. The safety review team reviewed safety and pharmacokinetic data of these subjects up to day 3 before dosing the rest of these two cohorts and up to day 19 for all cohorts before dose escalation. […] Selected subjects from the fasted cohorts then received 40 mg in a fed state to evaluate the effect of food on the tolerability and pharmacokinetic profile of MMV390048. […] The predose breakfast was in line with FDA guidelines ([13]) and was composed of approximately 800 to 1,000 calories (cal), with 150, 250, and 500 to 600 cal from protein, carbohydrate, and fat, respectively.
(§1) Blood samples from the three studies were analyzed at the University of Cape Town Division of Clinical Pharmacology Laboratory. MMV390048 was extracted from plasma using a protein precipitation procedure and analyzed using a liquid chromatography-tandem mass spectrometry assay. The precision (total assay coefficients of variation) for MMV390048 during sample analysis was less than 8% at all quality control levels, including the limit of quantification, which was 0.5 ng ml^−1. The full details of the assay are included in the supplemental material.
(§2) Noncompartmental pharmacokinetic analysis was performed using Phoenix WinNonlin Pro version 6.3 (Certara L.P., St. Louis, MO, USA) for the first-in-human and the formulation optimization studies, and using R version 3.2.0 for the IBSM study. Pharmacokinetic endpoints were the peak plasma concentration (Cmax), time at which Cmax is reached (Tmax), area under the concentration-time curve from 0 h to infinity (AUC0–inf), elimination half-life (t½), apparent clearance (CL/F), and apparent volume of distribution (Vz/F).

[2] = Induced blood-stage malaria (IBSM) study: plasma pharmacokinetics; type: in vivo; conditions: human; for AUC(0-t): oral, 20 mg
Description: (§3) (ii) IBSM study. The dose of MMV390048 chosen (20 mg) was based on the pharmacokinetic, safety, and tolerability data available from the first-in-human study at the time the IBSM study commenced (when 5- and 20-mg-dose cohorts of the first-in-human study had been completed). This dose was below the estimated single dose required to achieve complete cure calculated from preclinical studies (80 to 100 mg) since recrudescence allows for characterization of the pharmacokinetic/pharmacodynamic relationship between MMV390048 and P. falciparum parasitemia. Subjects were inoculated intravenously on day 0 with erythrocytes infected with ∼1,800 viable chloroquine-sensitive P. falciparum 3D7 parasites ([17]). Fasted (≥8 h) subjects were dosed with MMV390048 when they reached the parasitemia threshold for treatment (∼1,000 parasites ml^−1) and were followed up until the end-of-study visit on day 28.
as §1, §2

P. falciparum 3D7 = assay: Induced blood-stage malaria (IBSM) study: antimalarial activity (parasitemia by qPCR); type: in vivo, Plasmodium falciparum; conditions: 20 mg single dose
Description: as §3
Parasitemia was monitored by collecting blood samples and performing quantitative PCR (qPCR) targeting the gene encoding P. falciparum 18S rRNA ([20]). Blood samples were collected daily from day 4 until parasites were detectable; twice daily until MMV390048 dosing; before MMV390048 dosing and 2, 4, 8, 12, 16, 20, 24, 30, 36, 48, 60, and 72 h after MMV390048 dosing; twice daily until parasitemia was not detected over a 48-h period; 3 times per week until artemether-lumefantrine treatment; and then at the end of the study (day 28).

rats = test system: rats; set-up: method as in not given; conditions: preclinical toxicology studies in rats; ref not given; cited from earlier work
[3] = po, 5 mg, single oral 5 mg fasted, powder-in-bottle, n = 6, geometric mean (CV %)
[4] = po, 20 mg, single oral 20 mg fasted, powder-in-bottle, n = 6, geometric mean (CV %)
[5] = po, 40 mg, single oral 40 mg FED (high-fat breakfast), powder-in-bottle, n = 6, geometric mean (CV %)
[6] = po, 40 mg, single oral 40 mg fasted, powder-in-bottle, n = 6, geometric mean (CV %)
[7] = po, 80 mg, single oral 80 mg fasted, powder-in-bottle, n = 6, geometric mean (CV %)
[8] = po, 120 mg, single oral 120 mg fasted, powder-in-bottle, n = 5, geometric mean (CV %)
[9] = single oral 20 mg fasted, powder-in-bottle, n = 6, geometric mean (CV %)

For CS(=O)(=O)c1ccc(-c2cnc(N)c(-c3ccc(C(F)(F)F)nc3)c2)cc1 [MMV390048], the half-life ([1]; oral, all cohorts, powder-in-bottle, read-out: elimination half-life) was greater than 149 h, the Tmax ([1]; oral, fasted cohorts, read-out: median time of maximum concentration (Tmax)) was 1 to 2.5 h and the AUC(0-inf) [1, 3] was 2140 ng·h/mL. For the same compound, the Cmax [1, 3] was 15.6 ng/mL, the Vd/F [1, 3] was 520 L and the half-life ([1]; po, 5 mg, single oral 5 mg fasted, powder-in-bottle, n = 6, geometric mean (CV %), read-out: t1/2 (converted)) was 154 h. It also gave a Tmax ([1]; po, 5 mg, single oral 5 mg fasted, powder-in-bottle, n = 6, median (range), read-out: Tmax) of 1 h, an AUC(0-inf) [1, 4] of 33300 ng·h/mL and a Cmax [1, 4] of 136 ng/mL. The Vd/F [1, 4] was 266 L, the half-life ([1]; po, 20 mg, single oral 20 mg fasted, powder-in-bottle, n = 6, geometric mean (CV %), read-out: t1/2 (converted)) was 306 h and the Tmax ([1]; po, 20 mg, single oral 20 mg fasted, powder-in-bottle, n = 6, median (range), read-out: Tmax) was 2 h. For the same compound, the AUC(0-inf) [1, 5] was 34500 ng·h/mL, the Cmax [1, 5] was 155 ng/mL and the Vd/F [1, 5] was 373 L. For the same compound, the half-life ([1]; po, 40 mg, single oral 40 mg FED (high-fat breakfast), powder-in-bottle, n = 6, geometric mean (CV %), read-out: t1/2 (converted)) was 223 h, the Tmax ([1]; po, 40 mg, single oral 40 mg FED (high-fat breakfast), powder-in-bottle, n = 6, median (range), read-out: Tmax) was 4 h and the AUC(0-inf) [1, 6] was 17600 ng·h/mL. It also gave a Cmax [1, 6] of 74.4 ng/mL, a Vd/F [1, 6] of 624 L and a half-life ([1]; po, 40 mg, single oral 40 mg fasted, powder-in-bottle, n = 6, geometric mean (CV %), read-out: t1/2 (converted)) of 190 h. The Tmax ([1]; po, 40 mg, single oral 40 mg fasted, powder-in-bottle, n = 6, median (range), read-out: Tmax) was 2.5 h, the AUC(0-inf) [1, 7] was 62000 ng·h/mL and the Cmax [1, 7] was 238 ng/mL. The Vd/F [1, 7] was 444 L, the half-life ([1]; po, 80 mg, single oral 80 mg fasted, powder-in-bottle, n = 6, geometric mean (CV %), read-out: t1/2 (converted)) was 239 h and the Tmax ([1]; po, 80 mg, single oral 80 mg fasted, powder-in-bottle, n = 6, median (range), read-out: Tmax) was 1 h. The AUC(0-inf) [1, 8] was 82600 ng·h/mL, the Cmax [1, 8] was 518 ng/mL and the Vd/F [1, 8] was 432 L. The half-life ([1]; po, 120 mg, single oral 120 mg fasted, powder-in-bottle, n = 5, geometric mean (CV %), read-out: t1/2 (converted)) was 206 h, the Tmax ([1]; po, 120 mg, single oral 120 mg fasted, powder-in-bottle, n = 5, median (range), read-out: Tmax) was 1 h and the CL/F ([1]; single oral 5 mg fasted, powder-in-bottle, n = 6, geometric mean (CV %)) was 2.3 (76.3) liters h^−1. The CL/F [1, 9] was 0.6 (17.1) liters h^−1, the CL/F ([1]; single oral 40 mg FED (high-fat breakfast), powder-in-bottle, n = 6, geometric mean (CV %)) was 1.2 (67.5) liters h^−1 and the CL/F ([1]; single oral 40 mg fasted, powder-in-bottle, n = 6, geometric mean (CV %)) was 2.3 (86.8) liters h^−1. For the same compound, the CL/F ([1]; single oral 80 mg fasted, powder-in-bottle, n = 6, geometric mean (CV %)) was 1.3 (46.0) liters h^−1, the CL/F ([1]; single oral 120 mg fasted, powder-in-bottle, n = 5, geometric mean (CV %)) was 1.5 (165.8) liters h^−1 and the AUC(0-t) ([2]; the 4 subjects who recrudesced 2 days after treatment) was 6000 to 9000 ng·h/mL. For the same compound, the AUC(0-t) ([2]; the two subjects who recrudesced 7 days after treatment) was roughly 12000 ng·h/mL, the AUC(0-inf) [2, 9] was 15900 ng·h/mL and the Cmax [2, 9] was 106 ng/mL. For the same compound, the Tmax ([2]; single oral 20 mg fasted, powder-in-bottle, n = 6, median (range)) was 2 h, the “time to recrudescence after MMV390048 dosing” value (P. falciparum 3D7; n = 2 subjects (highest exposure)) was 7 days and the “time to recrudescence after MMV390048 dosing” value (P. falciparum 3D7; n = 4 subjects) was 2 days. For the same compound, the parasitemia following administration (P. falciparum 3D7; n = 6) was “decreased initially in all subjects”, the recrudescence (P. falciparum 3D7; n = 6) was “observed in all subjects” and the testicular toxicity (rats) was “testicular toxicity was observed”.

— publication PMC7179259, “Safety, Tolerability, Pharmacokinetics, and Antimalarial Activity of the Novel Plasmodium Phosphatidylinositol 4-Kinase Inhibitor MMV390048 in Healthy Volunteers” (Antimicrobial Agents and Chemotherapy, 2020)
